According to the supplement of paper PMC10307832:

Key:
Assay in all cases: relative viability (nuclei count vs DMSO), 5 days (fraction); higher = more cells survive
Veliparib + Navitoclax = compound: C[C@]1(c2nc3c(C(N)=O)cccc3[nH]2)CCCN1 [Veliparib] + CC1(C)CCC(c2ccc(Cl)cc2)=C(CN2CCN(c3ccc(C(=O)NS(=O)(=O)c4ccc(N[C@H](CCN5CCOCC5)CSc5ccccc5)c(S(=O)(=O)C(F)(F)F)c4)cc3)CC2)C1 [Navitoclax] (partner 0.5 µM)
Procedure, shortened: (§1)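 For relative viability, nuclei counts in treated wells were divided by those in vehicle wells. Lung cancer cell lines had been pin-tool dosed in 1536-well plates the day after seeding and cultured for 5 days, then fixed and stained in one step (final 0.05% Triton X-100, 1% formaldehyde, 1 ug/ml Hoechst) and imaged at 4×. Doses were one drug alone or a fixed anchor-drug dose plus five library-drug doses (not always all listed) in √10 steps, and values are duplicate-plate medians.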

[1] = compound: COC1=CC=C(C=C1)CN2C=CC3=C2C=C(C=C3)C(=O)NO + O=C(CCCCCCC(=O)Nc1ccccc1)NO [Vorinostat] (partner 1 µM)
Procedure, shortened: as §1

[2] = compound: COC1=CC=C(C=C1)CN2C=CC3=C2C=C(C=C3)C(=O)NO + COc1cccc2cc(-c3nc([C@H]4CC[C@H](C(=O)O)CC4)n4ncnc(N)c34)[nH]c12 [OSI-027] (partner 0.5 µM)
Procedure, shortened: as §1

Veliparib + Linsitinib = compound: C[C@]1(c2nc3c(C(N)=O)cccc3[nH]2)CCCN1 [Veliparib] + C[C@]1(O)C[C@@H](c2nc(-c3ccc4ccc(-c5ccccc5)nc4c3)c3c(N)nccn32)C1 [Linsitinib] (partner 1 µM)
Procedure, shortened: as §1

Row | Cell Line | relative viability (Veliparib + Navitoclax; first compound 0.02 µM) | relative viability (Veliparib + Navitoclax; first compound 0.06325 µM) | relative viability (Veliparib + Navitoclax; first compound 0.2 µM) | relative viability (Veliparib + Navitoclax; first compound 0.6325 µM) | relative viability (Veliparib + Navitoclax; first compound 2 µM) | relative viability ([1]; first compound 0.08 µM) | relative viability ([1]; first compound 0.253 µM) | relative viability ([1]; first compound 0.8 µM) | relative viability ([1]; first compound 2.53 µM) | relative viability ([1]; first compound 8 µM) | relative viability ([2]; first compound 0.08 µM) | relative viability ([2]; first compound 0.253 µM) | relative viability ([2]; first compound 0.8 µM) | relative viability ([2]; first compound 2.53 µM) | relative viability ([2]; first compound 8 µM) | relative viability (Veliparib + Linsitinib; first compound 0.02 µM) | relative viability (Veliparib + Linsitinib; first compound 0.06325 µM) | relative viability (Veliparib + Linsitinib; first compound 0.2 µM) | relative viability (Veliparib + Linsitinib; first compound 0.6325 µM) | relative viability (Veliparib + Linsitinib; first compound 2 µM)
1 | HCC-78 | 0.892 | 0.77 | 0.881 | 0.646 | 0.648 | 0.403 | 0.484 | 0.431 | 0.523 | 0.411 | 0.4 | 0.344 | 0.341 | 0.355 | 0.366 | 0.612 | 0.53 | 0.592 | 0.36 | 0.541
2 | HCC-366 | 1.09 | 1.01 | 0.968 | 0.942 | 1.1 | 0.107 | 0.303 | 0.385 | 0.407 | 0.223 | 0.486 | 1.03 | 0.978 | 0.896 | 0.772 | 0.511 | 0.623 | 0.536 | 0.572 | 0.574
3 | HCC-827 | 1.03 | 0.937 | 0.971 | 0.944 | 1.02 | 0.592 | 0.897 | 0.799 | 0.799 | 0.788 | 0.766 | 0.712 | 0.81 | 0.791 | 0.761 | 0.96 | 0.899 | 0.816 | 0.949 | 0.939
4 | HOP-62 | 1.05 | 1 | 1.06 | 0.937 | 1.03 | 0.39 | 0.666 | 0.528 | 0.748 | 0.531 | 0.729 | 0.888 | 0.909 | 0.871 | 0.758 | 1 | 0.923 | 0.738 | 0.987 | 0.983
5 | IA-LM | 0.939 | 0.697 | 0.755 | 0.697 | 0.94 | 0.801 |  | 0.971 | 1.05 | 0.961 |  |  |  |  |  | 0.411 | 0.494 | 0.538 | 0.544 | 0.708
6 | LC-2-ad |  | 0.446 | 0.405 | 0.312 | 0.497 | 0.58 | 0.742 | 0.748 | 0.701 | 0.592 | 0.793 | 0.853 | 0.826 | 0.979 | 0.671 |  | 0.83 | 0.787 | 0.819 | 0.786
7 | LCLC-97TM1 | 0.425 | 0.32 | 0.387 |  | 0.476 |  | 0.659 | 0.772 | 0.557 | 0.438 | 0.346 | 0.531 | 0.546 | 0.342 | 0.374 | 0.185 | 0.187 | 0.194 |  | 0.25
8 | LCLC-103H |  |  |  |  |  | 0.647 | 0.832 | 0.868 | 0.748 | 0.613 | 0.441 | 0.529 | 0.534 | 0.388 | 0.397 | 1.1 | 0.982 | 1.11 | 1.01 | 1.08
9 | LK-2 | 0.713 | 0.876 | 1.24 | 0.831 | 0.823 | 0.172 | 0.291 | 0.282 | 0.308 | 0.221 |  | 0.289 | 0.244 | 0.195 | 0.208 | 0.689 | 0.592 | 0.476 | 0.558 | 0.548
10 | NCI-H358 |  |  |  |  |  |  | 0.721 | 0.703 | 0.606 | 0.528 |  | 0.861 | 0.722 | 0.739 | 0.67 |  | 0.815 | 0.775 | 0.667 | 0.772
11 | NCI-H522 |  |  |  |  |  |  | 0.982 | 1.03 | 0.909 | 0.845 |  | 0.611 | 0.746 | 0.733 | 0.718 |  |  |  |  | 
12 | NCI-H650 |  |  |  |  |  | 0.337 | 0.414 | 0.437 | 0.477 | 0.34 | 0.524 | 0.494 | 0.52 | 0.526 | 0.438 | 0.766 | 0.716 | 0.864 | 0.875 | 0.448
13 | NCI-H661 |  |  |  |  |  |  | 0.807 | 0.717 | 0.747 | 0.639 |  | 0.78 | 0.727 | 0.658 | 0.625 | 0.4 | 0.59 | 0.604 | 0.496 | 0.666
14 | NCI-H1299 | 1.06 | 0.989 | 1.03 | 0.996 | 1.07 |  |  |  |  |  |  |  |  |  |  | 0.905 | 0.931 | 0.921 | 0.898 | 0.988
15 | NCI-H1563 |  |  |  |  |  |  |  |  |  |  | 0.626 | 0.812 | 0.739 | 0.724 | 0.712 | 1.23 | 1.07 | 1.27 | 1.12 | 1.12
16 | NCI-H1623 |  |  |  |  |  |  |  |  |  |  | 0.435 | 0.727 | 0.468 | 0.43 | 0.376 |  |  |  |  | 
17 | NCI-H1648 |  |  |  |  |  | 0.373 | 0.515 | 0.337 | 0.528 | 0.406 | 0.246 | 0.245 | 0.246 | 0.262 | 0.246 |  |  |  |  | 
18 | NCI-H1650 |  | 0.93 | 1.19 | 1.08 | 1.32 | 0.354 | 0.557 | 0.595 | 0.684 | 0.532 | 0.586 | 0.682 | 0.714 | 0.568 | 0.542 |  |  |  |  | 
19 | NCI-H1703 | 1.62 | 0.849 | 1.08 | 0.977 | 1.29 |  |  |  |  |  |  |  |  |  |  | 0.17 | 0.63 | 1.22 | 0.604 | 0.974
20 | NCI-H1792 | 0.589 | 0.5 | 0.67 | 0.616 | 0.564 |  |  |  |  |  | 0.722 | 0.811 | 0.745 | 0.802 | 0.616 | 0.59 | 0.422 | 0.535 | 0.494 | 0.543
21 | NCI-H2170 | 0.544 | 0.531 | 0.597 | 0.618 | 0.606 | 0.76 | 0.958 | 0.799 | 0.787 | 0.713 | 0.708 | 0.725 | 0.8 | 0.81 | 0.609 |  |  |  |  | 
22 | NCI-H2342 |  |  |  |  |  | 0.591 | 0.738 | 0.694 | 0.701 | 0.788 | 0.61 | 0.66 | 0.603 | 0.57 | 0.655 |  |  |  |  | 
23 | SW 900 |  |  |  |  |  | 0.477 | 0.334 | 0.441 | 0.733 | 0.358 | 0.559 | 0.533 | 0.63 | 0.622 | 0.447 |  |  |  |  | 
